Earlier results on two substances are cited in US20220154183A1, “CHMP2A as a Regulator of Natural Killer Cell-Mediated Activity” (The Regents of the University of California, priority 2019, published 2022).

For the series, the system named is HNSCC. The following applies: cetuximab as monotherapy.

Nivolumab: the patients responding is on record as 20%.

pembrolizumab: the patients responding is given as 20%.
